Measurements reported in article PMC3292407 (The Journal of Neuroscience, 2012).
Read-outs that look alike come from different tables or passages of the source.

Key:
rats [1] = type: in vivo, rat
[2] = Plasma [EtOH] assay of two-bottle choice; type: in vivo, rat; conditions: E+D/water-group vs E/water-group, end of the 6th week
GABAAR α4 subunit [3] = type: cell-based, rat; conditions: cultured neurons 24 hrs after EtOH 60 mM + DHM 0.1 μM (E+D)
rats [4] = assay: Loss of Righting Reflex
rats [5] = assay: Elevated-plus maze; type: in vivo, rat
rats [6] = assay: Pentylenetetrazol; type: in vivo, rat; conditions: PTZ 42 mg/kg
[7] = Plasma EtOH concentrations; type: in vivo, rat
GABAARs [8] = type: cell-based, rat; conditions: for Itonic (pA) / mIPSC amplitude (pA) / mIPSC area (fC) / Decay time / Frequency (HZ) / Rise time: DGCs of naive rats; for Decay time / Frequency (HZ) / Rise time: mIPSCs
GABAARs [9] = type: cell-based, rat
GABAAR α4 subunit [10] = assay: Western blot of total GABAAR α4 subunit in hippocampus 48 hr after withdrawal; type: in vivo, rat
GABAARs [11] = type: in vivo, rat; conditions: for Decay time / Frequency (HZ) / Rise time: baseline mIPSCs; for Itonic (pA) / mIPSC amplitude (pA) / mIPSC area (fC): baseline
[12] = 48 hr withdrawal after EtOH 3 g/kg + DHM 1 mg/kg i.p. (E+D/W)
[13] = DHM 0.3, 0.5, 1, 10 mg/kg co-injected i.p. with EtOH 3 g/kg
[14] = 48 hr after DHM 1 mg/kg i.p. alone (D/W)
[15] = DHM 3 μM in presence of EtOH 60 mM
[16] = DHM 1 μM, cultured hippocampal neurons DIV13-14
[17] = D/W: 48 hr after DHM 1 mg/kg gavage
[18] = E+D/W: 48 hr after EtOH 5 g/kg + DHM 1 mg/kg gavage

O=C1c2c(O)cc(O)cc2O[C@H](c2cc(O)c(O)c(O)c2)[C@H]1O [DHM, (2R,3R)-3,5,7-trihydroxy-2-(3,4,5-trihydroxyphenyl)-2,3-dihydrochromen-4-one]
Preference to bottle containing E+D (rats [1]; E+D/water-group, 3rd vs 7th week): did not change this preference | EtOH intake (rats [1]; EtOH+DHM 0.05 mg/ml/water (E+D/water-group), beginning of the 4th week): 2.6 ± 0.5 g/kg/day | Total fluid consumption (rats [1]; between the 4 groups (E/water, E+D/water, D/water, water/water)): no significant differences in total fluid consumption | Body weight (rats [1]; between the 4 groups at the end of the experiments): no significant difference in body weight | Plasma [EtOH] [2]: significantly lower | Effect on EtOH-induced increase in surface GABAAR α4 (GABAAR α4 subunit [3]): prevented this increase | Acute EtOH-induced LORR (tolerance) (rats [4]; 48 hr withdrawal after DHM 1 mg/kg i.p. alone (D/W)): 65.6 ± 8.4 min | Acute EtOH-induced LORR (tolerance) (rats [4]; [12]): 61.0 ± 3.8 min | LORR duration (rats [4]; DHM 1 mg/kg 30 min prior to EtOH injection (D1+E)): 8.2 ± 4.1 min | LORR duration (rats [4]; DHM 1 mg/kg co-injected i.p. with EtOH 4 g/kg (E4+D1)): 28.2 ± 4.0 min | LORR induction (rats [4]; DHM 1 mg/kg i.p. alone (D1)): did not induce LORR | LORR duration (rats [4]; DHM 3 mg/kg co-injected with EtOH 3 g/kg (E3+D3)): 2.7 ± 1.7 min | LORR duration (rats [4]; DHM 100 mg/kg i.p. alone (D100)): 2.9 ± 1.3 min | Effect on duration of EtOH-induced LORR (rats [4]; [13]): dose-dependently reduced LORR | Effect on onset of EtOH-induced LORR (rats [4]; [13]): dose-dependently increased LORR onset | LORR duration (rats [4]; DHM 300 mg/kg i.p. alone (D300)): 9.8 ± 4.3 min | Remaining LORR after the 30 min time point (rats [4]; DHM injected 30 min after EtOH): 19 ± 1.0 min | Time in open and closed arms (EPM) (rats [5]; [14]): did not affect the time rats spent in either arm | Time in open and closed arms (EPM) (rats [5]; 48 hr withdrawal after EtOH 3 g/kg + DHM 1 mg/kg i.p. (E+D/W), vs V/W-group): spent similar times | PTZ-induced seizure duration (rats [6]; [14]): 0.6 ± 0.4 min | PTZ-induced seizure duration (rats [6]; [12]): 1.7 ± 0.8 min | Effect on plasma [EtOH] ([7]; DHM 10 mg/kg with EtOH 3 g/kg, significant at 30 min, not at 60 min): slightly decreased [EtOH] | Rise time of plasma [EtOH] ([7]; DHM 1, 10 mg/kg with EtOH 3 g/kg): the rise time of plasma [EtOH] was slowed at early time | Itonic (pA) (GABAARs [8]; DHM 0.1 μM): 27.6 ± 1.4 pA | mIPSC amplitude (pA) (GABAARs [8]; DHM 0.1 μM): 30.9 ± 2.9 pA | mIPSC area (fC) (GABAARs [8]; DHM 0.1 μM): 637.1 ± 19.8 fC | Decay time (GABAARs [8]; DHM 0.1 μM): 7.5 ± 0.5 ms | Frequency (HZ) (GABAARs [8]; DHM 0.1 μM): 14.0 ± 0.6 HZ | Rise time (GABAARs [8]; DHM 0.1 μM): 2.0 ± 0.2 ms | Itonic (pA) (GABAARs [8]; DHM 1 μM): 44.0 ± 4.1 pA | mIPSC amplitude (pA) (GABAARs [8]; DHM 1 μM): 32.7 ± 2.6 pA | mIPSC area (fC) (GABAARs [8]; DHM 1 μM): 715.7 ± 26.2 fC | Decay time (GABAARs [8]; DHM 1 μM): 8.6 ± 0.5 ms | Frequency (HZ) (GABAARs [8]; DHM 1 μM): 15.0 ± 0.6 HZ | Rise time (GABAARs [8]; DHM 1 μM): 2.1 ± 0.2 ms | EtOH-potentiated Itonic (GABAARs [8]; [15]): 21.0 ± 0.9 pA | EtOH-potentiated mIPSCs (area) (GABAARs [8]; [15]): 0.70 ± 0.02 nC | Itonic (pA) (GABAARs [8]; DHM 10 μM): 53.8 ± 2.9 pA | mIPSC amplitude (pA) (GABAARs [8]; DHM 10 μM): 36.1 ± 2.4 pA | mIPSC area (fC) (GABAARs [8]; DHM 10 μM): 965.7 ± 30.9 fC | Decay time (GABAARs [8]; DHM 10 μM): 9.6 ± 0.8 ms | Frequency (HZ) (GABAARs [8]; DHM 10 μM): 15.9 ± 1.0 HZ | Rise time (GABAARs [8]; DHM 10 μM): 2.4 ± 0.3 ms | Itonic (pA) (GABAARs [8]; DHM 30 μM): 54.0 ± 3.4 pA | mIPSC amplitude (pA) (GABAARs [8]; DHM 30 μM): 35.8 ± 3.0 pA | mIPSC area (fC) (GABAARs [8]; DHM 30 μM): 956.7 ± 22.6 fC | Decay time (GABAARs [8]; DHM 30 μM): 10.1 ± 0.8 ms | Frequency (HZ) (GABAARs [8]; DHM 30 μM): 16.1 ± 1.7 HZ | Rise time (GABAARs [8]; DHM 30 μM): 2.4 ± 0.2 ms | Effect on EtOH (60 mM) potentiation of Itonic and mIPSCs (GABAARs [8]; DHM 0.3 and 1.0 μM): concentration-dependently antagonized | Itonic potentiation (GABAARs [9]; [16]): 194.9 ± 13.6 % of baseline | mIPSC area potentiation (GABAARs [9]; [16]): 181.8 ± 9.2 % of baseline | Effect on GABA concentration-response curve of GABAAR-currents (GABAARs [9]; DHM 0.3 and 1 μM co-applied with GABA, TTX present, DIV14): produced a left shift of the GABA concentration-response curve | Effect on total α4 subunit level (GABAAR α4 subunit [10]; hippocampus 48 hr after DHM 1 mg/kg i.p. alone (D/W)): had no effect on α4 subunit level | Total α4 protein level (GABAAR α4 subunit [10]; hippocampus 48 hr after EtOH 3 g/kg + DHM 1 mg/kg i.p. (E+D/W)): 93.0 ± 21.0 % of control | Decay time (GABAARs [11]; [17]): 7.9 ± 1.2 ms | Frequency (HZ) (GABAARs [11]; [17]): 13.2 ± 1.3 HZ | Rise time (GABAARs [11]; [17]): 2.2 ± 0.3 ms | Decay time (GABAARs [11]; [18]): 7.1 ± 0.6 ms | Frequency (HZ) (GABAARs [11]; [18]): 12.4 ± 0.5 HZ | Rise time (GABAARs [11]; [18]): 1.8 ± 0.3 ms | Itonic (pA) (GABAARs [11]; [17]): 24.3 ± 2.9 pA | mIPSC amplitude (pA) (GABAARs [11]; [17]): 28.5 ± 3.0 pA | mIPSC area (fC) (GABAARs [11]; [17]): 621.5 ± 68.5 fC | Itonic (pA) (GABAARs [11]; [18]): 30.0 ± 2.8 pA | mIPSC amplitude (pA) (GABAARs [11]; [18]): 26.2 ± 2.1 pA | mIPSC area (fC) (GABAARs [11]; [18]): 666.8 ± 34.1 fC | mIPSC modulation by acute EtOH (GABAARs [11]; bath EtOH 60 mM, DGCs of E+D/W-group rats): mIPSC modulation was unchanged

O=c1c(O)c(-c2ccc(O)c(O)c2)oc2cc(O)cc(O)c12 [quercetin, reference compound]
Effect on EtOH-induced potentiation of Itonic and mIPSCs (GABAARs [8]): did not change EtOH-induced potentiation
